Data as given in PMC11896996, “Emodin mitigates rheumatoid arthritis through direct binding to TNF-α” (Frontiers in Pharmacology, 2025).

Molecular target: T1, TNF-α (Homo sapiens, UniProt P01375)
T1 construct: Human TNF-α recombinant protein (Peprotech)
Test: SPR (Biacore T200, hTNF-α immobilized on CM5); BLI gave KD […]; TNF-α-TNFR1 ELISA IC50 […]
Format: binding

T1 sequence (P01375 77-233): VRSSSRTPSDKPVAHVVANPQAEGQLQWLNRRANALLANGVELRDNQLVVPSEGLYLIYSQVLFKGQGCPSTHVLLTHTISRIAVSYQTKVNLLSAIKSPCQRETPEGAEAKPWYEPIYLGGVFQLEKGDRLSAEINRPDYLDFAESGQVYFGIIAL

Cc1cc(O)c2c(c1)C(=O)c1cc(O)cc(O)c1C2=O [emodin, 1,3,8-trihydroxy-6-methylanthraquinone]
Kd: ~26.5 µM
